From ChEMBL document CHEMBL1156596, “Overcoming undesirable CYP1A2 inhibition of pyridylnaphthalene-type aldosterone synthase inhibitors: influence of heteroaryl derivatization on potency and selectivity” (J Med Chem, 2008)

Experiments:
[1] = Cmax in Wistar rat at 5 mg/kg, po; assay type: ADME, organism-based; parameters: dose 5 mg/kg, route oral; conditions: in vivo
[2] = Plasma concentration in Wistar rat plasma at 5 mg/kg, po after 2 hrs; assay type: ADME, organism-based; parameters: dose 5 mg/kg, route oral
[3] = Tmax in Wistar rat at 5 mg/kg, po; assay type: ADME, organism-based; parameters: dose 5 mg/kg, route oral; conditions: in vivo
CYP1A2 = biological target: T1, CYP1A2 (Homo sapiens, UniProt P05177); assay: Inhibition of human recombinant CYP1A2 expressed in insect microsomes at 2 uM; assay type: ADME, Microsome
T1 sequence (P05177 whole entry): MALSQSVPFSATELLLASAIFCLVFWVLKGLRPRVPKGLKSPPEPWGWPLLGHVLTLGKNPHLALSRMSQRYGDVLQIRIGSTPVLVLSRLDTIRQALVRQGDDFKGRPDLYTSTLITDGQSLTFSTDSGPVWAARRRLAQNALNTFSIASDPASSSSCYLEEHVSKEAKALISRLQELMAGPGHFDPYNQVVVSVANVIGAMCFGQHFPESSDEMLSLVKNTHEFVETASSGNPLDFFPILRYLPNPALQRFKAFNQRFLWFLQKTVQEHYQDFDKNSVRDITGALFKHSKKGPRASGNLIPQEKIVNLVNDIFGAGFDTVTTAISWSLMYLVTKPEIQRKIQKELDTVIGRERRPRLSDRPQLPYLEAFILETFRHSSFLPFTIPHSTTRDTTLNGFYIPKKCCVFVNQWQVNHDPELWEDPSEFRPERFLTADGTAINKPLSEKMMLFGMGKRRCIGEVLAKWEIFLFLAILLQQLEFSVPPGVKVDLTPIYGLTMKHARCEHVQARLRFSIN

in vivo = conditions: Wistar, rat, po, 5 mg/kg
[4] = Plasma concentration in Wistar rat plasma at 5 mg/kg, po after 1 hr; assay type: ADME, organism-based; parameters: dose 5 mg/kg, route oral
[5] = Plasma concentration in Wistar rat plasma at 5 mg/kg, po after 6 hrs; assay type: ADME, organism-based; parameters: dose 5 mg/kg, route oral
[6] = Plasma concentration in Wistar rat plasma at 5 mg/kg, po after 4 hrs; assay type: ADME, organism-based; parameters: dose 5 mg/kg, route oral
[7] = Plasma concentration in Wistar rat plasma at 5 mg/kg, po after 8 hrs; assay type: ADME, organism-based; parameters: dose 5 mg/kg, route oral
[8] = Terminal half life in Wistar rat at 5 mg/kg, po; assay type: ADME, organism-based; parameters: dose 5 mg/kg, route oral; conditions: in vivo
Cytochrome P450 1A2 = biological target: T2, Cytochrome P450 1A2 (Homo sapiens, UniProt P05177)
T2 sequence (P05177 whole entry): T1 sequence (P05177 whole entry)

Cytochrome P450 2D6 = Cytochrome P450 2D6 (Homo sapiens, UniProt P10635); assay: Inhibition of human recombinant CYP2D6 expressed in insect microsomes; assay type: ADME, Microsome
Cytochrome P450 2D6, sequence (P10635 whole entry): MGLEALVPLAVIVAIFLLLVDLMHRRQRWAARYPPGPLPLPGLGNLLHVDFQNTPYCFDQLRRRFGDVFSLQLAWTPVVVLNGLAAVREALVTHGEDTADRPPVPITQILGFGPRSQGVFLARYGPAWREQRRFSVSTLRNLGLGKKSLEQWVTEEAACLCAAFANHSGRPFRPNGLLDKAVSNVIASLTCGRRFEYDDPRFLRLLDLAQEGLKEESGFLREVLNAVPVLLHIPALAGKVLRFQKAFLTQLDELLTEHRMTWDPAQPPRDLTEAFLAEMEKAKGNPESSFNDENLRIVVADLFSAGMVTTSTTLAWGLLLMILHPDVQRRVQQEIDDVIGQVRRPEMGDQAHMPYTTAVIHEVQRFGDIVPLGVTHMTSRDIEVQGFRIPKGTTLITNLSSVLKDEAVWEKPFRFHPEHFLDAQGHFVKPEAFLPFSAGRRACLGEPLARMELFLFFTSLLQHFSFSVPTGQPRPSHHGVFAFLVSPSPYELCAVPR

Cytochrome P450 2C9 = Cytochrome P450 2C9 (Homo sapiens, UniProt P11712); assay: Inhibition of human recombinant CYP2C9 expressed in insect microsomes; assay type: ADME, Microsome
Cytochrome P450 2C9, sequence (P11712 whole entry): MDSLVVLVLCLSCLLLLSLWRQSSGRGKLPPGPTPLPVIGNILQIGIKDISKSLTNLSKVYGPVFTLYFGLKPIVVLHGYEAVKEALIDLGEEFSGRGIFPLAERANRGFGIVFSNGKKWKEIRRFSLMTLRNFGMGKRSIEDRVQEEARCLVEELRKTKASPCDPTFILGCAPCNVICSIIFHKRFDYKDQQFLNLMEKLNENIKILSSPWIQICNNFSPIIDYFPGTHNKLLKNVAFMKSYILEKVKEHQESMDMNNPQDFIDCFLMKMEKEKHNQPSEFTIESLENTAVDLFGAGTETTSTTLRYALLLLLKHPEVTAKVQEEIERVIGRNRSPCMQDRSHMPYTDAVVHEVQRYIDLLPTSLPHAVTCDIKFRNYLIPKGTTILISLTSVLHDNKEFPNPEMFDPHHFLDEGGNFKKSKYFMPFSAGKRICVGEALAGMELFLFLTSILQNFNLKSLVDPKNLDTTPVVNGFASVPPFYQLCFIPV

[9] = biological target: T3, Cytochrome P450 11B1, mitochondrial (Homo sapiens, UniProt P15538)
T3 sequence (P15538 whole entry): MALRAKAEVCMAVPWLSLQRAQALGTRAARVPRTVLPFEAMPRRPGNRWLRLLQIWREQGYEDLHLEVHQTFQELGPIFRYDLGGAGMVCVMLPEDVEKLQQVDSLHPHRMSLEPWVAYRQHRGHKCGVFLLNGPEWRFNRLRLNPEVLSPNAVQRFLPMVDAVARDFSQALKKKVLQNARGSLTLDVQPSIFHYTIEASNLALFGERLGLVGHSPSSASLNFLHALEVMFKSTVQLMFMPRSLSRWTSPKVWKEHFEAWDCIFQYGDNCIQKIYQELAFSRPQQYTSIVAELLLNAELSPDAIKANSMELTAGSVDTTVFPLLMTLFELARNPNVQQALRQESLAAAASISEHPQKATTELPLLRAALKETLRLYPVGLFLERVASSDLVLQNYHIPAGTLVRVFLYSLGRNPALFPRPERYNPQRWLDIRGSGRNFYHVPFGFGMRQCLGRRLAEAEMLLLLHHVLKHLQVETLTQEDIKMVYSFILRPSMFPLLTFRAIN

Homo sapiens = species: Homo sapiens; assay: Selectivity ratio of IC50 for human CYP11B1 to IC50 for human CYP11B2
[10] = biological target: T4, Cytochrome P450 11B2, mitochondrial (Homo sapiens, UniProt P19099)
T4 sequence (P19099 whole entry): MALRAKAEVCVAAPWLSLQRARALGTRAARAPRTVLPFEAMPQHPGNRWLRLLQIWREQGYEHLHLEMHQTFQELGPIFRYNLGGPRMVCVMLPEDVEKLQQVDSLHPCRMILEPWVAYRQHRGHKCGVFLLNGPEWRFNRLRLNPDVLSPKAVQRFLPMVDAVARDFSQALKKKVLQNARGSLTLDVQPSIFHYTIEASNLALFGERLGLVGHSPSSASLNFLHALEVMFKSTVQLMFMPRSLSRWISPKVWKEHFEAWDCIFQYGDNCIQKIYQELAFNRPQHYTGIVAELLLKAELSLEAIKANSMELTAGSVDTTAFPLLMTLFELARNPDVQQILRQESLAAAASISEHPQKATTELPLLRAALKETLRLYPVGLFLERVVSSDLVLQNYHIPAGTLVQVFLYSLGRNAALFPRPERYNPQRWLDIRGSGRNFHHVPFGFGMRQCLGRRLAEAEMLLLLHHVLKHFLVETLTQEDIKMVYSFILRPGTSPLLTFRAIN

Cytochrome P450 2C19 = Cytochrome P450 2C19 (Homo sapiens, UniProt P33261); assay: Inhibition of human recombinant CYP2C19 expressed in insect microsomes; assay type: ADME, Microsome
Cytochrome P450 2C19, sequence (P33261 whole entry): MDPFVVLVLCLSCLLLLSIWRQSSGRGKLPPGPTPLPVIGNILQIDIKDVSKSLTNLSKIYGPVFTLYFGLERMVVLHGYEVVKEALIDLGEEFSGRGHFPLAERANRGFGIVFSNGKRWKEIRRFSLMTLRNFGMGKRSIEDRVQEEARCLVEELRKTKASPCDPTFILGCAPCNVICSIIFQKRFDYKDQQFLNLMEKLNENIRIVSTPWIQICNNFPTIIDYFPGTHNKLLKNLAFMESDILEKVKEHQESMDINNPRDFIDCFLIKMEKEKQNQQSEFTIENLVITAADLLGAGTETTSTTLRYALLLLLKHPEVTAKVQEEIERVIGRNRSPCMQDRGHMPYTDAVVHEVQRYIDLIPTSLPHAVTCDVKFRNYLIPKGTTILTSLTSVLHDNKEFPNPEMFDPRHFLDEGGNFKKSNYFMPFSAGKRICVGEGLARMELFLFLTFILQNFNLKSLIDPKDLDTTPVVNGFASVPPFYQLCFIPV

Cytochrome P450 3A4 = Cytochrome P450 3A4 (Homo sapiens, UniProt P08684); assay: Inhibition of human recombinant CYP3A4 expressed in insect microsomes; assay type: ADME, Microsome
Cytochrome P450 3A4, sequence (P08684 whole entry): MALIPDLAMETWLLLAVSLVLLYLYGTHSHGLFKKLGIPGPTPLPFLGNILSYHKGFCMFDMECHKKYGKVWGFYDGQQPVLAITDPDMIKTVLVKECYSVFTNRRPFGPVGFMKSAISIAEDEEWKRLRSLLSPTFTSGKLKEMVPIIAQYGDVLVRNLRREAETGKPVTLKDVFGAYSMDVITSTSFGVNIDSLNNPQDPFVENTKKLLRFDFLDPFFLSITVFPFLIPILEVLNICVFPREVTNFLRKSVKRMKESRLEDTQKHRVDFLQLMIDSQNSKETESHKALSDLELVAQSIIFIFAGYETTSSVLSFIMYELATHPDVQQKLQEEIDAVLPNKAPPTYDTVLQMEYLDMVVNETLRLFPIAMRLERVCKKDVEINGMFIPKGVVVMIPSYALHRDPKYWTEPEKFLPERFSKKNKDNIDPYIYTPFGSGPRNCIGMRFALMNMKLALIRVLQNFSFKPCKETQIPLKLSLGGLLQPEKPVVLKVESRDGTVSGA

Cytochrome P450 2B6 = biological target: T5, Cytochrome P450 2B6 (Homo sapiens, UniProt P20813); assay: Inhibition of human recombinant CYP2B6 expressed in insect microsomes; assay type: ADME, Microsome
T5 sequence (P20813 whole entry): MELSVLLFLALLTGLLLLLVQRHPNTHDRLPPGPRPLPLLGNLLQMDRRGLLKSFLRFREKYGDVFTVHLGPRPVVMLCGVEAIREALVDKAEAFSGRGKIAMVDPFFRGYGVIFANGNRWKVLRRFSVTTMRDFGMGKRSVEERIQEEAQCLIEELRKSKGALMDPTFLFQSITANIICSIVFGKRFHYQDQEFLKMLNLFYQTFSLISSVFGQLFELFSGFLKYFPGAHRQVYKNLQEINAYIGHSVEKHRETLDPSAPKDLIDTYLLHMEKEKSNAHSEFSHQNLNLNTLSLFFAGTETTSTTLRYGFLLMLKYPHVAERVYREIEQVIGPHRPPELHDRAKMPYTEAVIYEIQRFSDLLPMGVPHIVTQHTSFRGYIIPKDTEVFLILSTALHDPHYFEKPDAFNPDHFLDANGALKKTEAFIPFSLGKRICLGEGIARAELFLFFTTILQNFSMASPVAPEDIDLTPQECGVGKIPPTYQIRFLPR

CYP17 = biological target: T6, CYP17 (Homo sapiens, UniProt P05093); assay: Inhibition of human recombinant CYP17 expressed in Escherichia coli at 2 uM
T6 sequence (P05093 whole entry): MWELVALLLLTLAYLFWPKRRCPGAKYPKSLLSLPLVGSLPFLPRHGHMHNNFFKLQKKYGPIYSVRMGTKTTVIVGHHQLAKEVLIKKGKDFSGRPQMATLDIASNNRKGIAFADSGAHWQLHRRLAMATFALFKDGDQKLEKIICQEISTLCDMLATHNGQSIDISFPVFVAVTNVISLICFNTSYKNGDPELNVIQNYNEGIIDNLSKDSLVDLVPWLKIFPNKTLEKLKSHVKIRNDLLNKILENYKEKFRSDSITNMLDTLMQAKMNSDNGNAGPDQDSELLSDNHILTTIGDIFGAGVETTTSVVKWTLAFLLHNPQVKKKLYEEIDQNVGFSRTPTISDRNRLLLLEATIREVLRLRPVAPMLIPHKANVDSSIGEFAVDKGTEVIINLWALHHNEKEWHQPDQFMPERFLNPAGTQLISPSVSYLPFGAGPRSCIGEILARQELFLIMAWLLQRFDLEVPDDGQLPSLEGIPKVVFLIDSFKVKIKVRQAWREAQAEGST

CYP19 (aromatase) = biological target: T7, CYP19 (aromatase) (Homo sapiens, UniProt P11511); assay: Inhibition of human placental CYP19 at 500 nM
T7 sequence (P11511 whole entry): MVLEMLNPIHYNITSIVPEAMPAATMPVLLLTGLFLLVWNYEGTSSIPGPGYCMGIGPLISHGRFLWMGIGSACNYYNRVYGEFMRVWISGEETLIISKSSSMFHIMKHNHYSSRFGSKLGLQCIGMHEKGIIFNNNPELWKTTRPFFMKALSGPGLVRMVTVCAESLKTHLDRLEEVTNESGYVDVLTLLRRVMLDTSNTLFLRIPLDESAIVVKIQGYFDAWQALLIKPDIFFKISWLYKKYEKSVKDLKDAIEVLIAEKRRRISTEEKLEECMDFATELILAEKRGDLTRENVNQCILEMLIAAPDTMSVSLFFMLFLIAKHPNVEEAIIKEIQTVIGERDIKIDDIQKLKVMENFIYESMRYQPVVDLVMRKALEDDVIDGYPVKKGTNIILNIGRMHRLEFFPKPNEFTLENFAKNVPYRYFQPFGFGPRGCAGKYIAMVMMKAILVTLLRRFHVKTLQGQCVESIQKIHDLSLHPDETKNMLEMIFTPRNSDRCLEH

CYP11B1 = biological target: T8, CYP11B1 (Homo sapiens, UniProt P15538); assay: in vitro; conditions: hamster V79 MZh cells expressing human CYP11B1
T8 sequence (P15538 whole entry): T3 sequence (P15538 whole entry)

[11] = biological target: T4, Cytochrome P450 11B2, mitochondrial; assay: Inhibition of human CYP11B2 expressed in hamster V79 MZh cells at 500 nM; assay type: cell-based; conditions: V79MZh

Compound | Cmax [1] [ng/mL] | inhibition at 2 µM (CYP1A2) [%] | IC50 (Cytochrome P450 1A2) [µM] | IC50 (Cytochrome P450 2D6) [µM] | IC50 (Cytochrome P450 2C9) [µM] | IC50 [9] [µM] | Ratio IC50 (Homo sapiens) | IC50 [10] [µM] | IC50 (Cytochrome P450 2C19) [µM] | IC50 (Cytochrome P450 3A4) [µM] | IC50 (Cytochrome P450 2B6) [µM] | inhibition at 2 µM (CYP17) [%] | inhibition at 0.5 µM (CYP19 (aromatase)) [%] | also measured
COc1ccc2cc(-c3cccnc3)ccc2c1 | 222 | 98 | – | – | – | – | – | – | – | – | – | – | – | concentration at 2 h [2]: 145 ng/mL; Tmax [3]: 1 h; AUC(0-inf) (in vivo; plasma): 1540 ng·h/mL; concentration at 1 h [4]: 84.5 ng/mL; concentration at 6 h [5]: 133 ng/mL; concentration at 4 h [6]: 124 ng/mL; concentration at 8 h [7]: 59.2 ng/mL; half-life [8]: 5.4 h
COc1ccc2cc(-c3cncc(C(C)=O)c3)ccc2c1 | – | 80 | 0.488 | > 200 | > 200 | 0.255 | 121 | 0.0021 | > 200 | 9.07 | > 50 | 36 | < 5 | –
N#Cc1ccc2cc(-c3cccnc3)ccc2c1 | – | 97 | – | – | – | – | 239 | 0.0029 | – | – | – | – | – | IC50 (CYP11B1): 0.691 µM
COc1ccc2cc(-c3cncc(C(=O)O)c3)ccc2c1 | – | – | – | – | – | – | – | – | – | – | – | – | – | inhibition at 0.5 µM [11]: 7%
COc1ccc2cc(-c3cnccc3N)ccc2c1 | < 1.5 | 58 | 1.42 | 11.1 | 49 | 1.52 | 117 | 0.013 | 45.8 | 21.1 | > 50 | 42 | 47 | –
N#Cc1ccc(C2CCCc3cncn32)cc1 (configuration not stated) [FADROZOLE] | 454 | 8 | – | – | – | – | – | – | – | – | – | – | – | Tmax [3]: 1 h; AUC(0-inf) (in vivo; in vivo): 3580 ng·h/mL; half-life [8]: 2.2 h
COc1cncc(-c2ccc3cc(OC)ccc3c2)c1 | – | 91 | 0.083 | > 25 | 1.89 | 0.238 | 57 | 0.0042 | > 25 | 1.91 | > 25 | 41 | 14 | –
